From paper PMC6985109, “Cellular apoptosis and necrosis as therapeutic targets for novel Eugenol Tosylate Congeners against Candida albicans” (Scientific Reports, 2020)
Converted amounts (≈) assume the structure as drawn.

Key:
Format in all cases: cell-based
Candida albicans 4576 = assay: Broth microdilution antifungal susceptibility (MIC/MFC); details: strain 4576, FLC susceptible
Method: (§1) In this study, 10 clinical Candida albicans isolates, comprising of 5 fluconazole susceptible and 5 fluconazole resistant, were used. C. albicans SC5314 was also used as a control laboratory strain. Clinical strains used in this study were stored at −80 °C supplemented with 20% glycerol in the Department of Clinical Microbiology and Infectious Diseases, University of the Witwatersrand, Johannesburg and were previously collected under the ethical clearance number M000402, obtained from the Human Research Ethics Committee, University of the Witwatersrand. For experimental purpose each strain from glycerol stock was recovered on Sabouraud Dextrose (SDA) agar plates at 37 °C for 24 h.
(§2) Minimum Inhibitory Concentration (MIC) and Minimum Fungicidal Concentrations (MFC) of all newly synthesized eugenol-tosylate congeners (ETC-1–ETC-7) against C. albicans strains were determined by broth microdilution assay in accordance with the approved guidelines described by Clinical and Laboratory Standards Institute (CLSI) guidelines M27-A[38]. The test compounds were prepared in 1% DMSO to a stock concentration of 8192 µg/ml. Two-fold dilutions of test compounds (100 µL) were prepared in 96-well flat-bottom microtiter plates, inoculated with 100 µl of inoculum (1 × 10^6 cells/mL) and incubated at 37 °C for 24 hours. In every set of experiment, positive control (fluconazole), negative vehicle control (1% DMSO) and culture control (media and cells only) were included. MIC’s were determined visibly as the lowest concentration of the test compounds that inhibited growth of test organism. To determine MFC, each well without visible growth was sub-cultured onto agar plates. Concentration in the first well with no growth on plate was taken as MFC. […] The experiment was performed in triplicate to validate the results.

Candida albicans 4563 = assay: as above; details: strain 4563, FLC susceptible
Method: as §1, §2

Candida albicans 4175 = assay: as above; details: Candida albicans, strain 4175, FLC susceptible
Method: as §1, §2

Candida albicans 4324 = assay: as above; details: strain 4324, FLC resistant
Method: as §1, §2

Candida albicans 4179 = assay: as above; details: strain 4179, FLC susceptible
Method: as §1, §2

Candida albicans 4180 = assay: as above; details: strain 4180, FLC susceptible
Method: as §1, §2

Candida albicans 4122 = assay: as above; details: strain 4122, FLC resistant
Method: as §1, §2

Candida albicans SC5314 = assay: as above; details: SC5314, FLC susceptible
Method: as §1, §2

Candida albicans 5112 = assay: as above; details: strain 5112, FLC resistant
Method: as §1, §2

Candida albicans 4106 = assay: as above; details: strain 4106, FLC resistant
Method: as §1, §2

Candida albicans 4135 = assay: as above; details: strain 4135, FLC resistant
Method: as §1, §2

[1] = tested on: fluconazole susceptible and resistant C. albicans strains; assay: Broth microdilution antifungal susceptibility, ranges over strains; details: Candida albicans; over the tested C. albicans strains
Method: as §1, §2

horse red blood cells = assay: Cytotoxicity by haemolytic assay; details: 2 × MIC, 60 minutes at 37 °C, horse RBCs
Method: The cytotoxicity of the test compounds was determined on horse red blood cells (NHLS, Johannesburg, South Africa) by testing the haemolytic activity of these compounds using the method described previously, with some modifications. Briefly, in a sterile 15 ml falcon tube 5 ml of horse blood was centrifuged at 2000 × rpm for 10 minutes. The supernatant was discarded, and the cell pellet was washed three times with chilled PBS solution. The final pellet was used to yield a 10% RBC suspension with chilled PBS. The 10% suspension were further diluted to 1:10 in PBS, then 100 µl of this suspension was added to different concentration of test compounds (0.5 × MIC, 1 × MIC and 2 × MIC) in 1.5 ml tubes. The tubes were then incubated for 60 minutes at 37 °C followed by centrifugation at 2000 × rpm for 10 minutes. From each tube, 200 µl of the supernatant was transferred to a flat-bottomed 96-well microtiter plate and absorbance was monitored at 450 nm spectrophotometrically with an iMark microplate reader (Bio-Rad laboratories, CA, USA). Triton X-100 (1%) and PBS were used as positive and negative controls respectively. The percentage of haemolysis was calculated by the following equation: %haemolysis=A450oftestcompoundtreatedsample−A450ofbuffertreatedsample/A450of1%TritonX−100treatedsample−A450ofbuffertreatedsample×100%

Molecule `C=CCc1ccc(OS(=O)(=O)c2ccc(C(=O)O)cc2)c(OC)c1` [ETC-7, 4-{[2-methoxy-4-(prop-2-en-1-yl)phenoxy]sulfonyl}benzoic acid] has an MFC (Candida albicans 4576) of 4 µg/mL (≈ 11.5 µM), an MIC (Candida albicans 4576; 37 °C, 24 h) of 2 µg/mL (≈ 5.74 µM) and an MFC (Candida albicans 4563) of 2 µg/mL (≈ 5.74 µM). It also gave an MIC (Candida albicans 4563; 37 °C, 24 h) of 1 µg/mL (≈ 2.87 µM), an MFC (Candida albicans 4175) of 2 µg/mL (≈ 5.74 µM) and an MIC (Candida albicans 4175; 37 °C, 24 h, read-out: MIC) of 1 µg/mL (≈ 2.87 µM). It also gave an MFC (Candida albicans 4324) of 8 µg/mL (≈ 23 µM), an MIC (Candida albicans 4324; 37 °C, 24 h) of 4 µg/mL (≈ 11.5 µM) and an MFC (Candida albicans 4179) of 4 µg/mL (≈ 11.5 µM). For the same molecule, the MIC (Candida albicans 4179; 37 °C, 24 h) was 2 µg/mL (≈ 5.74 µM), the MFC (Candida albicans 4180) was 8 µg/mL (≈ 23 µM) and the MIC (Candida albicans 4180; 37 °C, 24 h) was 4 µg/mL (≈ 11.5 µM). The MFC (Candida albicans 4122) was 16 µg/mL (≈ 45.9 µM), the MIC (Candida albicans 4122; 37 °C, 24 h) was 8 µg/mL (≈ 23 µM) and the MFC (Candida albicans SC5314) was 2 µg/mL (≈ 5.74 µM). It also gave an MIC (Candida albicans SC5314; 37 °C, 24 h) of 1 µg/mL (≈ 2.87 µM), an MFC (Candida albicans 5112) of 16 µg/mL (≈ 45.9 µM) and an MIC (Candida albicans 5112; 37 °C, 24 h) of 8 µg/mL (≈ 23 µM). The MFC (Candida albicans 4106) was 4 µg/mL (≈ 11.5 µM), the MIC (Candida albicans 4106; 37 °C, 24 h) was 2 µg/mL (≈ 5.74 µM) and the MFC (Candida albicans 4135) was 8 µg/mL (≈ 23 µM). For the same molecule, the MIC (Candida albicans 4135; 37 °C, 24 h) was 4 µg/mL (≈ 11.5 µM), the MFC [1] was 2 to 8 µg/mL (≈ 5.74 to 23 µM) and the MIC [1] was 1 to 4 µg/mL (≈ 2.87 to 11.5 µM). It also gave a haemolytic activity (horse red blood cells) of 8.91%.
